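These data come from cells grown in 96-well plates and exposed to compound for 48 hours at five concentrations. The concentration for 50% growth inhibition is given as GI50.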 Calls of active or inactive are those of the source. Rule as the data show it: active = GI50 up to about 1.1 µM and inactive = higher.
Tests used:
Test in all cases: growth of human tumour cells (NCI), 48 h
[1] = test system: K562
[2] = test system: HOP-92
[3] = test system: HCC 2998
[4] = test system: UO-31
[5] = test system: MDA-MB-231
[6] = test system: NCI-H226
[7] = test system: NCI/ADR-RES
[8] = test system: SK-MEL-5
[9] = test system: SW-620
[10] = test system: HL-60
[11] = test system: NCI-H522
[12] = test system: HCT-15
[13] = test system: MCF7
[14] = test system: HOP-62
[15] = test system: BT-549
[16] = test system: SNB-75
[17] = test system: OVCAR-5
[18] = test system: Hs-578T
[19] = test system: SF-539
[20] = test system: EKVX

CCCC(Sc1nc(N)nc2nc[nH]c12)C(=O)O (stereo unspecified)
GI50 [1]: 37.7 µM (inactive) | GI50 [2]: > 100 µM (inactive) | GI50 [3]: 34.3 µM (inactive) | GI50 [4]: 65.2 µM (inactive) | GI50 [5]: > 100 µM (inactive) | GI50 [6]: > 100 µM (inactive) | GI50 [7]: 41.9 µM (inactive) | GI50 [8]: > 100 µM (inactive) | GI50 [9]: > 100 µM (inactive) | GI50 [10]: > 100 µM (inactive) | GI50 [11]: 49 µM (inactive) | GI50 [12]: 91.6 µM | GI50 [13]: 62.4 µM (inactive) | GI50 [14]: > 100 µM (inactive) | GI50 [15]: > 100 µM (inactive) | GI50 [16]: > 100 µM (inactive) | GI50 [17]: 63.1 µM (inactive) | GI50 [18]: > 100 µM (inactive)

NCCCN(CCCCN(CCCN)Cc1ccccc1)Cc1ccccc1
GI50 [1]: 54.2 µM (inactive) | GI50 [2]: > 10 µM (inactive) | GI50 [3]: 10.8 µM (inactive) | GI50 [4]: 26.1 µM (inactive) | GI50 [5]: > 100 µM (inactive) | GI50 [6]: 21.2 µM (inactive) | GI50 [7]: > 100 µM (inactive) | GI50 [8]: 57.8 µM (inactive) | GI50 [9]: > 100 µM (inactive) | GI50 [19]: 27.6 µM (inactive) | GI50 [10]: > 100 µM (inactive) | GI50 [11]: 10.9 µM (inactive) | GI50 [20]: 21.2 µM (inactive) | GI50 [12]: > 100 µM | GI50 [13]: 25.1 µM (inactive) | GI50 [15]: 79.6 µM (inactive) | GI50 [16]: 4.57 µM (inactive) | GI50 [17]: 17.5 µM (inactive) | GI50 [18]: 13 µM (inactive)

CCOC(=O)c1nc2cc(C(F)(F)F)ccc2nc1Oc1ccc(C#N)cc1
GI50 [1]: 70.6 µM (inactive) | GI50 [2]: > 100 µM (inactive) | GI50 [3]: 80 µM (inactive) | GI50 [4]: > 100 µM (inactive) | GI50 [5]: > 100 µM (inactive) | GI50 [6]: > 100 µM (inactive) | GI50 [7]: > 100 µM (inactive) | GI50 [8]: 92.5 µM (inactive) | GI50 [9]: > 100 µM (inactive) | GI50 [19]: > 100 µM (inactive) | GI50 [10]: 71.8 µM (inactive) | GI50 [11]: > 100 µM (inactive) | GI50 [20]: > 100 µM (inactive) | GI50 [12]: > 100 µM | GI50 [13]: > 100 µM (inactive) | GI50 [15]: > 100 µM (inactive) | GI50 [16]: > 100 µM (inactive) | GI50 [17]: > 100 µM (inactive) | GI50 [18]: > 100 µM (inactive)

CC(O)C(O)C(O)C(/C=N\Nc1ccccc1)=N/Nc1ccccc1 (stereo unspecified)
GI50 [1]: 6.78 µM (inactive) | GI50 [2]: 14.7 µM (inactive) | GI50 [3]: 10.8 µM (inactive) | GI50 [4]: 12.2 µM (inactive) | GI50 [5]: 12.3 µM (inactive) | GI50 [7]: 11.2 µM (inactive) | GI50 [8]: 15.1 µM (inactive) | GI50 [9]: 11.6 µM (inactive) | GI50 [19]: 15.1 µM (inactive) | GI50 [10]: 12.6 µM (inactive) | GI50 [11]: 8.09 µM (inactive) | GI50 [20]: 12.1 µM (inactive) | GI50 [12]: 12.4 µM | GI50 [13]: 10.5 µM (inactive) | GI50 [14]: 14.4 µM (inactive) | GI50 [15]: 13.7 µM (inactive) | GI50 [16]: 16.7 µM (inactive) | GI50 [17]: 13.9 µM (inactive) | GI50 [18]: 11 µM (inactive)

Cc1ccc2nc(-c3ccc(NC(=O)c4ccc(N)cc4)c(S(=O)(=O)O)c3)sc2c1
GI50 [1]: > 100 µM (inactive) | GI50 [2]: > 100 µM (inactive) | GI50 [3]: > 100 µM (inactive) | GI50 [4]: > 100 µM (inactive) | GI50 [5]: > 100 µM (inactive) | GI50 [6]: > 100 µM (inactive) | GI50 [7]: > 100 µM (inactive) | GI50 [8]: > 100 µM (inactive) | GI50 [9]: > 100 µM (inactive) | GI50 [10]: > 100 µM (inactive) | GI50 [11]: > 100 µM (inactive) | GI50 [20]: > 100 µM (inactive) | GI50 [12]: > 100 µM | GI50 [13]: > 100 µM (inactive) | GI50 [14]: > 100 µM (inactive) | GI50 [15]: > 100 µM (inactive) | GI50 [16]: > 100 µM (inactive) | GI50 [17]: > 100 µM (inactive) | GI50 [18]: > 100 µM (inactive)

CCCCc1c2c(c(C)c3c1C(=O)OC3)Oc1ccccc1O2
GI50 [1]: 0.379 µM (active) | GI50 [2]: 10.2 µM (inactive) | GI50 [3]: 0.646 µM (active) | GI50 [4]: 5.77 µM (inactive) | GI50 [5]: 2.57 µM (inactive) | GI50 [6]: 2.8 µM (inactive) | GI50 [7]: 0.382 µM (active) | GI50 [8]: 0.478 µM (active) | GI50 [9]: 1.02 µM (active) | GI50 [19]: 0.608 µM (active) | GI50 [10]: 0.316 µM (active) | GI50 [11]: 0.217 µM (active) | GI50 [12]: 0.708 µM | GI50 [13]: 1.63 µM (inactive) | GI50 [14]: 1.23 µM (inactive) | GI50 [15]: 6.46 µM (inactive) | GI50 [16]: 0.562 µM (active) | GI50 [17]: > 27.5 µM (inactive) | GI50 [18]: 0.628 µM (active)

O=c1c(O)c(-c2cc(O)c(O)c(O)c2)oc2cc(O)cc(O)c12 [MYRICETIN]
GI50 [1]: 35.6 µM (inactive) | GI50 [2]: 46.7 µM (inactive) | GI50 [4]: 90.8 µM (inactive) | GI50 [5]: 18.1 µM (inactive) | GI50 [6]: 25.6 µM (inactive) | GI50 [7]: 22.4 µM (inactive) | GI50 [8]: 31.5 µM (inactive) | GI50 [9]: 19.5 µM (inactive) | GI50 [19]: > 100 µM (inactive) | GI50 [10]: 56.6 µM (inactive) | GI50 [11]: 68.1 µM (inactive) | GI50 [12]: 24.8 µM | GI50 [13]: 18.5 µM (inactive) | GI50 [14]: 20.3 µM (inactive) | GI50 [15]: 32.6 µM (inactive) | GI50 [16]: 64.4 µM (inactive) | GI50 [17]: 84.1 µM (inactive) | GI50 [18]: 40.9 µM (inactive)
